Reference: US20220315567A1 (priority 2016, published 2022)
Where two headings read alike, the source gives them in different places.

Legend:
human OPRM1 (μ, MOR) [1] = molecular target: T1, human OPRM1 (μ, MOR) (Homo sapiens, UniProt P35372); assay: cell-based; details: for Emax: OPRM1, read-out: cAMP Emax; for EC50: PathHunter human OPRM1 Arrestin CHO-K1 cell line, read-out: cAMP EC50
T1 construct: host or cells: CHO-K1
Protocol: G-protein signaling was measured via second messenger cAMP modulation. Detection of cAMP modulation was accomplished in the PathHunter human OPRM1 (μ, MOR) Arrestin CHO-K1 cell line using the Dynamic2 cAMP Kit from Cisbio.

human OPRM1 (μ, MOR) [2] = molecular target: T1, human OPRM1 (μ, MOR); assay: cell-based; details: for Emax: OPRM1, read-out: β-Arrestin Emax; for EC50: PathHunter human OPRM1 Arrestin CHO-K1 cell line, read-out: β-Arrestin EC50
Outline: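 β-Arrestin-2 recruitment was measured in PathHunter CHO-K1 cells expressing ED-tagged human OPRM1 and EA-fused arrestin. Agonist-driven recruitment restores β-galactosidase activity by enzyme fragment complementation, read by chemiluminescence.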

human OPRM1 (μ, MOR) [3] = molecular target: T1, human OPRM1 (μ, MOR); format: cell-based; details: for ΔRA of compound: relative activity from EC50 and Emax of β-arrestin vs cAMP, lower RA = more G-protein biased
Outline: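 Activity measured in cell assays for G-protein signaling and for β-arrestin recruitment. A relative activity (RA) value was derived by comparing the two readouts, taking both EC50 and Emax into account.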

[4] = healthy volunteers; cited from earlier work
[5] = patients following bunionectomy; cited from earlier work

T1 sequence (P35372 whole entry): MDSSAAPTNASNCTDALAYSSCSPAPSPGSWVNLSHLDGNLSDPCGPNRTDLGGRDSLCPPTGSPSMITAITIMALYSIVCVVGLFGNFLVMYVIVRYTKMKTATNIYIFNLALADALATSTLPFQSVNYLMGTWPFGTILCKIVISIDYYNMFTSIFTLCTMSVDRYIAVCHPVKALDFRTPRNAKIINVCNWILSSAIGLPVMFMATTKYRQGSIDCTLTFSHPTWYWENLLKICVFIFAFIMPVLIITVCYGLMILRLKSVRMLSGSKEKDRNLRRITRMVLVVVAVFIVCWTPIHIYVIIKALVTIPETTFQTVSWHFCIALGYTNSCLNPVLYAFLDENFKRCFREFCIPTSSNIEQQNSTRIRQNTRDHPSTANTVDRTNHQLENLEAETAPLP

| Compound | Emax (human OPRM1 (μ, MOR) [1]) | EC50 (human OPRM1 (μ, MOR) [1]) | melting point | Emax (human OPRM1 (μ, MOR) [2]) | EC50 (human OPRM1 (μ, MOR) [2]) | Bias Factor (ΔRA of compound relative to ΔRA of DAMGO) × 10 (human OPRM1 (μ, MOR) [3]) | ΔRA of compound (human OPRM1 (μ, MOR) [3]) | cAMP Emax (human OPRM1 (μ, MOR) [1]) | β-Arrestin Emax (human OPRM1 (μ, MOR) [2]) | on-target adverse effects (nausea, decrease in respiratory drive) [4] | level of analgesia [5] |
| --- | --- | --- | --- | --- | --- | --- | --- | --- | --- | --- | --- |
| CN(C)C1(CNC(=O)N[C@H]2CCc3ccccc3C2)CCCC1 [Compound 65] | < 10% | > 100000 nM | 204 to 206 °C | < 1% | > 100000 nM |  |  |  |  |  |  |
| CN(C)C(CNC(=O)N[C@@H]1CCc2ccccc2C1)c1ccsc1 (some centres unmarked) [Compound 66] |  |  | 164 to 166 °C |  |  | <−14.83 | <−2.96 |  |  |  |  |
| CN(C)C(CNC(=O)N[C@H]1CCc2ccccc2C1)c1ccsc1 (some centres unmarked) [Compound 67] |  | 13 nM | 165 to 167 °C |  | > 100000 nM | <−14.83 | <−2.96 | 50.9% | 2.6% |  |  |
| COc1ccc(C(CNC(=O)N2CCCc3cc(F)ccc32)N(C)C)cc1 (centres unmarked) [Compound 68a] | 94.6% | 167 nM | 145 to 146 °C | 39.9% | 14600 nM | −8.36 | −2.32 |  |  |  |  |
| CN(C)[C@H](CCNC(=O)N[C@@H]1CCc2ccccc2C1)c1ccsc1 [Compound 71] |  | 177 nM | 112 to 114 °C |  | 1820 nM | −3.66 | −1.85 | 71.2% | 10.5% |  |  |
| CN(C)[C@H](CCNC(=O)N[C@@H]1CCc2ccccc2C1)c1ccsc1 [Compound 72] |  | 197 nM | 147 to 149 °C |  | 2610 nM | −0.99 | −1.58 | 111.9% | 39.1% |  |  |
| CN(C)[C@@H](CCNC(=O)N[C@@H]1CCc2ccccc2C1)c1ccsc1 [Compound 73] | 13.6% | 422 nM | 147 to 148 °C | < 1% | > 100000 nM | <−14.83 | <−2.96 |  |  |  |  |
| CN(C)[C@@H](CCNC(=O)N[C@H]1CCc2ccccc2C1)c1ccsc1 [Compound 74] | 11.2% | > 100000 nM | 144 to 146 °C | < 1% | > 100000 nM |  |  |  |  |  |  |
| COc1ccsc1CNCC[C@@]1(c2ccccn2)CCOC2(CCCC2)C1 [oliceridine, N-[(3-methoxythiophen-2-yl)methyl]-2-[(9R)-9-pyridin-2-yl-6-oxaspiro[4.5]decan-9-yl]ethanamine] |  |  |  |  |  |  |  |  |  | decreased on-target adverse effects | higher level of analgesia |
